# Source: patent publication US20100268174A1, “COMBINATION OF ALCOHOL LOCK AND GENTIAN VIOLET CATHETER” (priority 2007, published 2010)
# Experiments:
# [1] = test system: all organisms of interest
# Experimental: Dilutions were prepared in Cationic Adjusted Mueller Hinton Broth (CAMHB). All tests were performed in microtiter plates with a total test volume of 100 μL, including diluted antimicrobial agent and inoculum. Concentrations of antimicrobial agents were prepared at 2× concentration, and 50 μL was added to each well of a microtiter plate, to which 50 μL of inoculum of the test organism was added to give the target test concentration.
# Cells were subsequently centrifuged, and resuspended twice in phosphate buffered saline. The population of this bacterial suspension was determined by reading optical density at 670 nm. […] Initial concentrations were verified using the Miles and Misra drop count method. […] Incubation was at 37° C. for 16 to 20 hours.
# To determine MBC values, 50 μl was removed from each well showing inhibition of growth (MIC and greater). Solutions from these inhibitory concentrations of antimicrobial agent were diluted in CAMHB to concentrations where they would no longer inhibit the growth of the test organism. Recovery counts were obtained by plating aliquots of the diluted material onto TSA plate containing 5% sheep's blood, and incubating 24 hours at 37° C.
# most microorganisms = conditions: Sissons et al. 1996; cited from earlier work
# [2] = assay type: physicochemical
# Experimental: One of the surprising findings about the temperature effects is that certain classes of polyurethanes are processable below the degradation temperature and other classes are not.
# Compounding Conditions for Stable Gentian Violet:
# Barrel Temperatures: • Zone 1-5=170° C. • Zone 6=175° C.,
# Compounding Temperature for Degraded Gentian Violet:
# Compounding was performed with Sigma Aldrich ACS grade gentian violet, lot 016K3691. HPLC analysis was performed by cutting and measuring 1 cm segments of each formulation (n=3) using the method described in Examples II and III.
# The chromatograms show the stable gentian violet followed by the degraded gentian violet, at 588 nm, 253 nm, and 280 nm. The degradation peaks from the 217° C. sample are evident as the new peaks at 253 and 280 nm wavelengths. The chromatogram of the low processing temperature was identical to that of the Gentian Violet raw material.
# [3] = Temperature effect (196-219 °C) on degradation of gentian violet compounded in Carbothane resin (HPLC); assay type: physicochemical; conditions: compounded Carbothane resin with 0.5% GV
# Experimental: Gentian violet contents from compounded resin and tube sample were analyzed via HPLC method. HPLC analysis on GV loaded resin or compounded pellets was performed by weighing 0.1-0.3 g, which is roughly equivalent to 10-20 pellets (depending on the weight of the raw material used) of each formulation (n=3) and digesting in THF (5 mL or 7.5 mL) in 50 mL centrifuge tubes. Samples were allowed to sit for 45 minutes, and then vortexed until all of the polymer dissolved. An equal amount of deionized (DI) water was then added (5 or 7.5 mL), and the samples were again vortexed for 5 minutes, and then centrifuged for 10 minutes. A portion of each sample was then added to an HPLC vial and capped prior to HPLC analysis. HPLC analysis was performed on an Agilent 1200 Series LC using an Agilent Eclipse XDB-CN 5μ 4.6×150 mm column with the corresponding guard column. A gradient program was run using two solvent reservoirs: 5 g of gentian violet (Sigma-Aldrich, St. […] Louis, Mo.). 1000 g of Carbothane®-3585A-B20 (Noveon, Cleveland, Ohio) resin was added in to the gentian violet/ethanol solution. The ethanol solvent was evaporated off in a chemical fume hood overnight at ambient conditions. The gentian violet coated pellets were then dried at 50° C. and 30 inches Hg for 24 hrs prior to compounding. […] The melt temperatures from each run are recorded in Table 6. […]
# [4] = Temperature effect (high temperatures) on degradation of gentian violet compounded in Carbothane resin (HPLC); assay type: physicochemical; conditions: drop in extractable GV content
# Experimental: Gentian violet contents from compounded resin and tube sample were analyzed via HPLC method. HPLC analysis on GV loaded resin or compounded pellets was performed by weighing 0.1-0.3 g, which is roughly equivalent to 10-20 pellets (depending on the weight of the raw material used) of each formulation (n=3) and digesting in THF (5 mL or 7.5 mL) in 50 mL centrifuge tubes. Samples were allowed to sit for 45 minutes, and then vortexed until all of the polymer dissolved. An equal amount of deionized (DI) water was then added (5 or 7.5 mL), and the samples were again vortexed for 5 minutes, and then centrifuged for 10 minutes. A portion of each sample was then added to an HPLC vial and capped prior to HPLC analysis. HPLC analysis was performed on an Agilent 1200 Series LC using an Agilent Eclipse XDB-CN 5μ 4.6×150 mm column with the corresponding guard column. A gradient program was run using two solvent reservoirs: The sample preparation for loading GV on resin pellets is similar to EXAMPLE V. Gentian violet was purchased from (Sigma-Aldrich, St. Louis, Mo.) and Carbothane®-3585A-B20 (Noveon, Cleveland, Ohio) was used. The heating profile was varied for each run.
processing temperature at which degradation starts [2],processing temperature at which extruded gentian violet was found to degrade [2],processing temperature that does not degrade gentian violet [2],processing temperature up to which GV content is essentially unchanged [3],onset of degradation (processing temperature) ([3]; worse at 219° C.),temperature above which there is significant degradation of the GV [4],Structure (SMILES),concentration at which the solution will not inhibit microbial growth [1],subinhibitory concentration ([1]; for all organisms of interest),ethanol lock concentration cidal towards most commonly encountered infectious pathogens ([1]; suggested by the Table 1 results),concentration generally considered bactericidal (most microorganisms),concentration that inhibits the growth of most microorganisms (most microorganisms)
,,,,,,CCO [ethanol],below 7%,5%,above 25%,≥ 40%,10%
about 209 °C,217 °C,under 207 °C,≤ 206 °C,209 °C,above 220 °C,CN(C)c1ccc(C(=C2C=CC(=[N+](C)C)C=C2)c2ccc(N(C)C)cc2)cc1 [gentian violet],,,,,
